The target in one test is T1, CD73 on human PBMCs (Homo sapiens, UniProt P21589).
T1 construct: 72400 (T cells); host or cells: human PBMCs / human T cells
T1 sequence (P21589 27-549): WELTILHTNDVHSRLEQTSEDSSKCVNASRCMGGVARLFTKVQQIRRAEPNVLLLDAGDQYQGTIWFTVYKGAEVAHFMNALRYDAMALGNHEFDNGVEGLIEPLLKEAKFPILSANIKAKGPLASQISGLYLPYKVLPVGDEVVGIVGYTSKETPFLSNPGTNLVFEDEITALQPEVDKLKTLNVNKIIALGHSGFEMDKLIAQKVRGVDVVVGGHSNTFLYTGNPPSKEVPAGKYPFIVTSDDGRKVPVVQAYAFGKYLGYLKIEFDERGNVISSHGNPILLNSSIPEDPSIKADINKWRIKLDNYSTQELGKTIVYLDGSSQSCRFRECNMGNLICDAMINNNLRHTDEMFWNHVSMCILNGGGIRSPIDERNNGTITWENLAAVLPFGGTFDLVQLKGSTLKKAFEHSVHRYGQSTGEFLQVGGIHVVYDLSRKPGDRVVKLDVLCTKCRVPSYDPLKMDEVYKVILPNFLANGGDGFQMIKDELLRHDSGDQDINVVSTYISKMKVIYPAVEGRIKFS
Put plainly: CD73 enzyme inhibition assay with human PBMCs (PiColorLock). The following applies: AMP 100 μM. The test is classed as cell-based. The protocol: The cell-based CD73 enzyme inhibition assay was performed in a 96-well plate format using the PiColorLock phosphate assay kit in accordance with the manufacturer's instructions (Abcam cat no. 270004). 4T1 mouse cells are a model for stage IV human breast cancer (ATCC CRL-2539) and human peripheral blood mononuclear cells (PBMCs; StemCell Technologies cat no. 70025) from three different donors were assayed. 4T1 cells were washed three times with a phosphate-free CD73 buffer (Lawson et al., 2020), detached from tissue-culture flasks using a cell scraper, and seeded at 5×10^3 cells/well into 96-well tissue culture-treated plates. Human PBMCs were washed three times with phosphate-free CD73 buffer at 125×g for 10 min at room temperature and seeded at 1×10^5 cells/well into 96-well tissue culture-treated plates. Test articles were tested from 0.001 nM to 1,000 nM (4T1 cells) or 0.0001 nM to 100 nM (PBMCs) and incubated with cells for 30 min at 37° C., 5% CO2. AMP (100 μM final concentration) was added to cells and test articles, and the reaction incubated for 3 h and 24 h at 37° C., 5% CO2. The conversion of AMP to adenosine and phosphate in cell-free supernatant was quantified using the PiColorLock kit. Colorimetric detection reagent was added and the phosphate production was measured by reading the absorbance at 635 nm with the EnSpire multimode plate reader (PerkinElmer). Cells without test article (positive control) were included on each plate. Control wells without test article and cells (background) were subtracted from all wells. Percent CD73 inhibition versus inhibitor concentration was plotted using GraphPad Prism Version 8 and IC50's calculated using nonlinear regression analysis (Sigmoidal, 4 PL).
The cell-based CD73 enzyme inhibition assay was performed in a 96-well plate format using the Phosphate Assay Kit—PiColorLock™ in accordance with the manufacturer's instructions (cat no. 270004, Abcam). AMP is enzymatically converted by CD73 to adenosine and phosphate. Therefore, adenosine concentrations can be inferred from phosphate concentrations in 1:1 ratio. Both EMT6 mouse mammary carcinoma cells (ATCC CRL-2755) and human peripheral blood mononuclear cells (PBMC; Stemcell Technologies cat no. 70025, lot no. 2202401007) were assayed. The EMT6 cells were washed three times with a phosphate free CD73 buffer, detached from flasks using a cell scraper, and seeded at 3×10^3 cells/well in 100 μL into 96-well tissue culture-treated plates. Human PBMC cells were washed three times by suspending in phosphate free CD73 buffer and pelleting in a centrifuge at 125×g for 10 min at room temperature and seeded at 5×10^5 cells/well in 100 μL into 96-well tissue culture-treated plates. […] AMP was added at 100 μM and cells, test articles, and AMP were incubated together for 3 h and 24 h at 37° C., 5% CO2. The CD73 activity in the supernatant was quantified using the PiColorLock Phosphate assay kit. Colorimetric detection reagent was added and the free phosphate from the CD73 reaction was measured by reading the absorbance at 635 nm using the EnSpire multimode plate reader (PerkinElmer). Wells without test inhibitor (CD73 positive control) were included on each plate. Wells without test inhibitor and cells (background) were subtracted from all wells. The percent CD73 inhibition versus inhibitor concentration was plotted using GraphPad Prism Version 8 and IC50's calculated using nonlinear regression analysis (Sigmoidal, 4 PL).

The target in test [1] is T2, CD73 expressed on the MDA-MB-231 cell surface (Homo sapiens, UniProt P21589).
T2 construct: host or cells: MDA-MB-231
T2 sequence (P21589 27-549): T1 sequence (P21589 27-549)
Put plainly: Cell-based CD73 enzyme inhibition assay using MDA-MB-231 cells (CellTiter-Glo). The protocol:
The cell-based CD73 enzyme inhibition assay was performed essentially as described above for the cell-free assay, with the following modifications. MDA-MB-231 human breast adenocarcinoma cells (ATCC CRM-HTB-26) were seeded at 2×10^4 cells/well/100 μL into 96-well tissue culture-treated plates (Corning Costar cat no. 3596) and incubated overnight at 37° C., 5% CO2. Cells were incubated with test inhibitors (50 μL/well) and AMP (25 μL/well, final 400 μM) for 3 h at 37° C., 5% CO2 to allow for interaction with CD73 expressed on the MDA-MB-231 cell surface. The 96-well plate was then centrifuged at 125×g for 5 min at room temperature and ATP (25 μL/well, 100 μM final) was combined with supernatant (25 μL/well) in a white opaque 96-well plate (Corning Costar cat no. 3912). The CD73 activity in the supernatant was quantified using the CellTiter-Glo kit (Promega cat no. G7571). Percent CD73 inhibition (y-axis) versus log10 inhibitor concentration (x-axis) were plotted using GraphPad Prism Version 8 and IC50's calculated using nonlinear regression analysis (Sigmoidal, 4 PL).
An additional assay was performed to test the effect of linker length on IC50 potency using the cell-based CD73 enzyme inhibition assay. Conjugate 194, Conjugate 195, and Conjugate 196 have the same small molecule targeting moiety (Int) as Conjugate 172c (batch 9) but with varying linker lengths.
Background: Cellular ATP, detected with luciferase, serves as a proxy for viable cell number.

Setting [2] is: read-out: 3 h median IC50 [nM] (range), three unique PBMC donors, 3 h.
The mark [3] stands for this setting: three unique PBMC donors, 24 h, read-out: 24 h median IC50 [nM] (range).
Setting [4] is: MDA-MB-231 cells, AMP 400 μM, 3 h, Table 29 experiment.

“And” between values parts separate entries of the source, which are not always exact repeats. Equal values may be shown once. Read-outs that look alike come from different tables or passages of the source.

What is called IC50 is the concentration that gives 50% inhibition.

Regarding `COC[C@](CO)(OC[C@H]1O[C@@H](n2ncc3c(NC4CCCC4)nc(Cl)nc32)[C@H](O)[C@@H]1O)P(=O)(O)O` [OP-5244], the IC50 at CD73 on human PBMCs (human PBMCs, 24 h (Table 18), read-out: 24 h IC50) was 0.28 nM; at CD73 on human PBMCs (read-out: 3 h IC50, human PBMCs, 3 h (Table 18)), 0.011 nM; on CD73 on human PBMCs (setting [2]), 0.07 nM; at CD73 on human PBMCs (setting [3]), 0.15 nM; in test [1] (setting [4]) it was 0.9 nM and 0.87 nM.
As to `O=P(O)(O)COC[C@H]1O[C@@H](n2ncc3c(N4CC5(CCc6ccccc65)C4)nc(Cl)nc32)[C@H](O)[C@@H]1O` [SHR170008], the IC50 was 1.45 nM on CD73 on human PBMCs (setting [2]); 2.36 nM on CD73 on human PBMCs (setting [3]); 3.7 nM in test [1] (setting [4]); 4 nM in test [1] (additional assay on linker length, Table 30 experiment).

The values above are taken from patent publication US20260000781A1, “FC CONJUGATES INCLUDING AN INHIBITOR OF CD73 AND USES THEREOF” (Cidara Therapeutics, Inc., priority 2022, published 2026).
